Assay results taken from patent publication US20090202596A1, “PHARMACEUTICAL COMPOSITIONS WITH BIOLOGICAL BARRIERS PERMEATION ENHANCING PROPERTIES” (FARMATRON LIMITED, priority 2006, published 2009).

Assay: In vitro solubilization kinetics in buffer solution
Assay type: physicochemical
Settings: buffer pH 7.4, 37° C., HPLC
Method: Solubilization Kinetics of the Double Microemulsions of the Invention
The “in vitro” solubilization kinetics was determined in buffer solution (pH 7.4, 37° C.); sample of the double microemulsion under testing is dispersed in tubes filled with 50 ml of buffer solution and placed over a thermostated shaking plate; at predetermined time intervals samples of the solution were filtered and then ultra-centrifuged; drug concentration was determined by HPLC, data are reported in Table 2.

Compound `CCC(C)n1ncn(-c2ccc(N3CCN(c4ccc(OCC5COC(Cn6cncn6)(c6ccc(Cl)cc6Cl)O5)cc4)CC3)cc2)c1=O` (centres unmarked) [Itraconazole pure dispersion, Itraconazole] has a Drug concentration (0.5 hr) of 0.05 µg/mL, a Drug concentration (1 hr) of 0.1 µg/mL and a Drug concentration (3 hr) of 0.3 µg/mL. For the same compound, the Drug concentration (8 hr) was 0.5 µg/mL and the Drug concentration (24 hr) was 1.5 µg/mL.
